Measured values taken from paper PMC7217150, “Synthesis, Modification, and Biological Evaluation of a Library of Novel Water‐Soluble Thiopyridone‐Based Organometallic Complexes and Their Unexpected (Biological) Behavior” (Chemistry (Weinheim an Der Bergstrasse, Germany), 2020).
Read-outs that look alike come from different tables or passages of the source.

Key:
A549 [1] = assay: MTT cytotoxicity assay, monolayer culture; type: cell-based, human; conditions: exposure time 96 h, means ± SDs
CH1/PA‐1 [2] = assay: MTT cytotoxicity assay, monolayer culture; type: cell-based, human; conditions: CH1/PA‐1, MTT assay, exposure time 96 h, means ± SDs
SW480 [3] = assay: MTT cytotoxicity assay, monolayer culture; type: cell-based, human
[4] = UV/Vis stability in aqueous solution; type: physicochemical; conditions: in PBS, rank among osmium complexes
Procedure: In order to investigate complex stabilities, UV/Vis spectrophotometry was conducted for all complexes. […] This process is fastest for complex 4 b* followed by complexes 4 a* and finally 4 c* in PBS. Decomposition of the osmium compounds was slightly slower in pure water (Figure 5).
UV/Vis spectra were recorded using a Hewlett Packard 8452A diode‐array spectrophotometer between 200–800 nm. The path length (l) was either 1 or 2 cm. UV/Vis spectra were recorded to confirm complex stability in aqueous systems and over a pH range 5.8–7.9.

[5] = tested on: autochthonous colon cancer; parameters: method as in earlier work; conditions: rat model, well tolerable dose, cited from earlier work
[6] = tested on: human cancer cell lines CH1/PA‐1, SW480, A549
Procedure: Cytotoxicity of the compounds in monolayer cultures was determined by the colorimetric MTT assay (MTT=3‐(4,5‐dimethyl‐2‐thiazolyl)‐2,5‐diphenyl‐2H‐tetrazolium bromide). 1×10^3 CH1/PA‐1, 2×10^3 SW480 and 3×10^3 A549 cells were seeded in 100 μL supplemented MEM per well into 96‐well flat‐bottom microculture plates. […] After 96 h, the drug‐containing medium was replaced with 100 μL of RPMI 1640/MTT mixture [6 parts of RPMI 1640 medium (supplemented with 10 % heat‐inactivated fetal bovine serum and 4 mM L‐glutamine), 1 part of MTT solution in phosphate‐buffered saline (5 mg mL^−1)]. After incubation for 4 h, the mixture was replaced with 150 μL DMSO per well to dissolve the formazan product formed by viable cells. Optical densities at 550 nm (and at a reference wavelength of 690 nm) were measured with a microplate reader (ELx808, Bio‐Tek).

[7] = pH 7.2
Procedure: Stock solutions containing the desired complex in DMSO (5 mM) were diluted with phosphate buffer (pH 7.2) to a final concentration of […] compound in 1 % DMSO/20 mM buffer and directly analyzed by four different isocratic UHPLC runs (Δ=5 %). The lipophilicity parameters logkw and lipophilicity indices φ0 were calculated according to literature.7, 37

HCT‐116 = HCT‐116 multicellular spheroids, 96 h drug exposure
Procedure: (§1) A549, CH1/PA‐1 and SW480 cells were grown in MEM supplemented with 10 % fetal calf serum (FCS; from Biowest), 1 mM sodium pyruvate, 4 mM L‐glutamine and 1 % v/v nonessential amino acids (from 100×solution) and L‐glutamine. HCT‐116 cells were maintained in McCoy's 5a medium supplemented with 10 % FCS and L‐glutamine. Adherent monolayer cultures were grown in 75 cm^2 flasks. For spheroid culture, A549, CH1/PA‐1 and HCT‐116 cells were harvested from culture flasks by trypsinization, resuspended in their respective supplemented medium and seeded in ultra‐low attachment round‐bottom 96‐well plates (Corning Costar) at a density of 500 viable cells per well. Plates were incubated for 96 h to allow spheroid formation prior to use for the tests. All cultures were incubated in a humidified incubator at 37 °C with 5 % CO2.
(§2) Cytotoxicity in multicellular spheroids was determined by the fluorimetric resazurin assay. […] After incubation for 96 h, 20 μL of a 440 μM resazurin sodium salt solution in PBS were added to each well, and the plates were incubated for further 16 h. Fluorescence was measured with a Synergy HT reader (BioTek) with an excitation wavelength of 530 nm and emission wavelength of 590 nm. For both assays, at least three independent experiments (or two in case of poor activity) were performed, each with triplicates per concentration level, and the 50 % inhibitory concentrations (IC50) relative to untreated controls were interpolated from concentration‐effect curves.

A549 [8] = conditions: A549 multicellular spheroids, 96 h drug exposure
Procedure: as §1, §2

CH1/PA‐1 [9] = conditions: CH1/PA‐1 multicellular spheroids, 96 h drug exposure
Procedure: as §1, §2

CH1/PA‐1 [10] = assay: Cell cycle distribution, flow cytometry with propidium iodide; type: cell-based, human; conditions: for Cell cycle distribution G1, % / Cell cycle distribution G2/M, % / Cell cycle distribution S, %: 24 h, mean ± SD; for Relative change in cell cycle distribution G1, % / Relative change in cell cycle distribution G2/M, % / Relative change in cell cycle distribution S, %: difference to untreated control
How it was run: (§3)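 CH1/PA-1 and SW480 cells were allowed to attach for 24 h, then exposed continuously to compounds for 24 h at 37 °C. Nuclei were stained overnight at 4 °C with propidium iodide (50 μg mL^−1) in Triton/citrate buffer. 5×10^3 cells were analysed by flow cytometry, with G1/S/G2/M fractions fitted by the Watson Pragmatic model.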

SW480 [11] = assay: as above; type: cell-based, human; conditions: for Cell cycle distribution G1, % / Cell cycle distribution G2/M, % / Cell cycle distribution S, %: 24 h, mean ± SD; for Relative change in cell cycle distribution G1, % / Relative change in cell cycle distribution G2/M, % / Relative change in cell cycle distribution S, %: difference to untreated control
How it was run: as §3

[12] = SW480, MTT assay, exposure time 96 h, means ± SDs

Cc1c([O-])c(=S)ccn1-c1ccccc1.Cc1ccc(C(C)C)cc1.[Cl-].[Os+2] [Compound 4 b, Chlorido[2‐methyl‐3‐(oxo‐κO)‐1‐phenylpyridine‐4(1H)‐thionato‐κS](η^6‐p‐cymene)osmium(II)]
IC50 (A549 [1]): 2200 ± 1100 nM
IC50 (CH1/PA‐1 [2]): 1130 ± 30 nM
IC50 (SW480 [3]; [12]): 5800 ± 300 nM
decomposition speed by UV/Vis [4]: fastest

[Cl-].[Cl-].[Cl-].[Cl-].[Ru+3].c1ccc2[nH][nH+]cc2c1.c1ccc2[nH]ncc2c1.c1ccc2[nH]ncc2c1 [KP1019, indazolium trans‐[tetrachlorido‐bis(1H‐indazole)ruthenate(III)]]
reduction of tumor volume ([5]; autochthonous colon cancer): up to 95%
weight loss [5]: no more than 6%

CC1=C2[O][Ir+]([Cl])[S]=C2C=CN1Cc1ccccc1.Cc1c(C)c(C)[c-](C)c1C [Compound 6 c, Chlorido[1‐benzyl‐2‐methyl‐3‐oxo‐κO‐pyridine‐4(1H)‐thionato‐κS](η^5‐1,2,3,4,5‐pentamethylcyclopentadienyl)iridium(III)]
IC50 (A549 [1]): 1100 ± 200 nM
IC50 (CH1/PA‐1 [2]): 570 ± 50 nM
IC50 (SW480 [3]; [12]): 540 ± 70 nM
IC50 (SW480 [3]; SW480, as listed in Table 3): 540 ± 70 nM
cytotoxicity relative to 3 c and 4 c [6]: up to 20 times
IC50 values, in words ([6]; tested cancer cell lines): high nanomolar range
cellular concentration relative to 3 c (SW480 cells): 11 times
cellular concentration relative to 5 c (SW480 cells): 2 times
Cellular accumulation (SW480 cells; ICP‐MS, 2 h exposure, 50 μM): 1680±333 fg/cell
φ0 (chromatographic lipophilicity index) [7]: 6.22
IC50 (HCT‐116): 78000 ± 2000 nM
IC50 (A549 [8]): 136000 ± 5000 nM
IC50 (CH1/PA‐1 [9]): 114000 ± 3000 nM
Cell cycle distribution G1, % (CH1/PA‐1 [10]; CH1/PA-1, 0.75 µM): 30 ± 4%
Cell cycle distribution G2/M, % (CH1/PA‐1 [10]; CH1/PA-1, 0.75 µM): 32 ± 4%
Cell cycle distribution S, % (CH1/PA‐1 [10]; CH1/PA-1, 0.75 µM): 38 ± 3%
Relative change in cell cycle distribution G1, % (CH1/PA‐1 [10]; CH1/PA-1, 0.75 µM): -10%
Relative change in cell cycle distribution G2/M, % (CH1/PA‐1 [10]; CH1/PA-1, 0.75 µM): 8%
Relative change in cell cycle distribution S, % (CH1/PA‐1 [10]; CH1/PA-1, 0.75 µM): 2%
Cell cycle distribution G1, % (CH1/PA‐1 [10]; CH1/PA-1, 1.25 µM): 30 ± 8%
Cell cycle distribution G2/M, % (CH1/PA‐1 [10]; CH1/PA-1, 1.25 µM): 33 ± 4%
Cell cycle distribution S, % (CH1/PA‐1 [10]; CH1/PA-1, 1.25 µM): 37 ± 6%
Relative change in cell cycle distribution G1, % (CH1/PA‐1 [10]; CH1/PA-1, 1.25 µM): -10%
Relative change in cell cycle distribution G2/M, % (CH1/PA‐1 [10]; CH1/PA-1, 1.25 µM): 9%
Relative change in cell cycle distribution S, % (CH1/PA‐1 [10]; CH1/PA-1, 1.25 µM): 1%
Cell cycle distribution G1, % (CH1/PA‐1 [10]; CH1/PA-1, 2.5 µM): 27 ± 4%
Cell cycle distribution G2/M, % (CH1/PA‐1 [10]; CH1/PA-1, 2.5 µM): 34 ± 3%
Cell cycle distribution S, % (CH1/PA‐1 [10]; CH1/PA-1, 2.5 µM): 39 ± 4%
Relative change in cell cycle distribution G1, % (CH1/PA‐1 [10]; CH1/PA-1, 2.5 µM): -13%
Relative change in cell cycle distribution G2/M, % (CH1/PA‐1 [10]; CH1/PA-1, 2.5 µM): 10%
Relative change in cell cycle distribution S, % (CH1/PA‐1 [10]; CH1/PA-1, 2.5 µM): 3%
decrease in G1 phase (CH1/PA‐1 [10]; CH1/PA‐1 cells, 2.5 μM): 13%
Cell cycle distribution G1, % (SW480 [11]; SW480, 0.75 µM): 40 ± 5%
Cell cycle distribution G2/M, % (SW480 [11]; SW480, 0.75 µM): 24 ± 5%
Cell cycle distribution S, % (SW480 [11]; SW480, 0.75 µM): 36 ± 2%
Relative change in cell cycle distribution G1, % (SW480 [11]; SW480, 0.75 µM): -8%
Relative change in cell cycle distribution G2/M, % (SW480 [11]; SW480, 0.75 µM): 5%
Relative change in cell cycle distribution S, % (SW480 [11]; SW480, 0.75 µM): 3%
Cell cycle distribution G1, % (SW480 [11]; SW480, 1.25 µM): 39 ± 13%
Cell cycle distribution G2/M, % (SW480 [11]; SW480, 1.25 µM): 22 ± 3%
Cell cycle distribution S, % (SW480 [11]; SW480, 1.25 µM): 38 ± 8%
Relative change in cell cycle distribution G1, % (SW480 [11]; SW480, 1.25 µM): -9%
Relative change in cell cycle distribution G2/M, % (SW480 [11]; SW480, 1.25 µM): 3%
Relative change in cell cycle distribution S, % (SW480 [11]; SW480, 1.25 µM): 5%
Cell cycle distribution G1, % (SW480 [11]; SW480, 2.5 µM): 43 ± 2%
Cell cycle distribution G2/M, % (SW480 [11]; SW480, 2.5 µM): 19 ± 3%
Cell cycle distribution S, % (SW480 [11]; SW480, 2.5 µM): 38 ± 5%
Relative change in cell cycle distribution G1, % (SW480 [11]; SW480, 2.5 µM): -5%
Relative change in cell cycle distribution G2/M, % (SW480 [11]; SW480, 2.5 µM): 0%
Relative change in cell cycle distribution S, % (SW480 [11]; SW480, 2.5 µM): 5%
decrease in G1 phase (SW480 [11]; SW480 cells, at applicable concentrations): < 9%
